The record followed here is patent US20110207694A1, “MAMMALIAN HYPOTHALAMIC NUTRIENT MODULATION OF GLUCOSE METABOLISM” (priority 2005, published 2011).

The test system of experiment [1] is conscious rats. The experiment in a line: ICV glucose or lactate infusion with pancreatic basal insulin clamp: plasma glucose and liver glucose production. The format is in vivo, rat. The conditions noted are these: for effect of ICV co-infused LDH inhibitor or KATP blocker on the effects of ICV glucose or lactate on plasma glucose and GP: ICV co-infusion. From the text: We hypothesize that the hypothalamic sensing of glucose-derived pyruvate is a novel regulator of endogenous glucose production (GP). […] We propose that an increase in neuronal pyruvate levels is a hypothalamic signal of nutrient availability.
Long chain fatty acids in the brain decrease glucose production (GP) by the liver via activation of hypothalamus ATP-sensitive (KATP) channels. Here we tested whether (A) direct administration of glucose in the third cerebral ventricle can alter glucose production by the liver, and (B) whether this effect requires its metabolism in the TCA cycle.

Experiment [2] has as its system conscious rats. The experiment is described as follows: Intravenous lactate infusion with or without MBH oxamate: plasma TG and hepatic TG-VLDL production. Format: in vivo, rat. The conditions noted are these: oxamate within the mediobasal hypothalamus prior to the i.v. lactate infusion. As for the experimental part: (§1) Infusion protocols. The in vivo infusion experiments lasted a total of 360 min, and the experiments were carried out in rats that had their food removed ˜5 h before the experiments. Thus, at the time of the experiment, the rats are in post-absorptive state since their stomach should be completely emptied by 5 h fasting. […] This ICV glucose protocol physiologically elevate hypothalamic glucose concentration by ˜70% as previously described (Lam et al., 2005b) and is similar to that induced by a doubling of the circulating glucose levels (Lam et al., 2005b). During the ICV infusions, we monitored the plasma metabolite levels under pre-infused (0 min), basal (180-240 min) and pancreatic clamp (300-360 min) conditions. […] A basal insulin-pancreatic clamp was performed in the final 2 h (240-360 min) of the study as previously described (Lam et al., 2005b). In brief, a continuous infusion of insulin (1 mU/kg.min) and somatostatin (3 μg/kg.min) was administered, and a variable infusion of a 25% glucose solution was started and periodically adjusted to clamp and maintain the plasma glucose concentration at ˜8 mM. […] To examine the time-dependent effects of ICY glucose on plasma triglycerides, ICY (5 μl/h) 2 mM D-glucose or mannitol was administrated for 210 min and plasma triglyceride levels were monitored at 0, 20, 60, 120, 180, 210 min. […] Plasma triglycerides were monitored under basal, pancreatic clamp and tyloxapol-treated conditions. At the end of the infusion experiments, rats were anesthetized and tissue samples were freeze-clamped in situ with aluminum tongs pre-cooled in liquid nitrogen. All tissue samples were stored at −80° C. for subsequent analysis.
VLDL are decreased in the hours following an acute bout of exercise. […] To investigate the mechanism by which lactate lowers plasma TG levels, the rate of production of hepatic TG-enriched VLDL was measured.

For experiment [3], the system named is mediobasal hypothalamus. The experiment is described as follows: Intrahypothalamic (IH) infusion of glucose or DCA with pancreatic basal insulin clamp. Format: in vivo, rat. The conditions noted are these: IH, with glucose. From the text: FIG. 3 is a diagram of experimental protocols (Panel (a)) and graphs of results of those experiments utilizing intrahypothalamic (IH) infusions of glucose.
FIG. 4 is a schematic and graphs of experimental results showing the effect of dichloroacetate (DCA), an inhibitor of pyruvate dehydrogenase kinase, having the effect of activating pyruvate dehydrogenase (PDH). The schematic of Panel (a) illustrates the PDH activation effect of DCA in the context of glucose metabolism, the TCA cycle, and nervous system cells.
We have localized the effect of glucose on liver glucose production to the mediobasal hypothalamus. This was accomplished using bilateral intraparenchymal (rather than ICY) delivery of both glucose and the KATP blocker GLI.

Experiment [4] has as its system male Sprague-Dawley rats. The experiment is described as follows: ICV infusion: plasma triglycerides and metabolites under basal and pancreatic clamp conditions. The format is in vivo, rat.
From the text: Animal preparation. We studied 10-week-old male Sprague-Dawley rats. Rats underwent stereotaxic surgery to indwell single catheters in the third cerebral ventricle {intracerebroventricular (ICV)(Obici et al., 2001) or bilateral catheters into the mediobasal hypothalamus (Lam et al., 2005c). One week later, we placed indwelling catheters in the internal jugular vein and carotid artery for sampling and infusion during the in vivo experiments (Obici et al., 2001). Recovery from surgery was monitored by measuring daily food intake and weight gain for 4-5 days after surgery.
as §1
Biochemical analyses. Plasma glucose concentrations were measured by the glucose oxidase method (Glucose Analyzer II, Beckman Instruments, Inc., Fullerton, Calif.). […] FFA concentrations were determined by an enzyme assay in accordance with the manufacturer's specifications (Waco Pure Chemical Industries. Osaka. Japan). Plasma insulin concentrations (with rat and porcine insulin standards) were measured by radioimmunoassay (RIA). Plasma adiponectin concentrations were measured by RIA (Linco Inc., Austin, Tex., USA). Liver triglycerides were measured as described (Muse et al., 2004).
Calculations. Statistical analysis was done by unpaired Student's t test or analysis of variance as appropriate. Data are presented as means±SEM. All values were collapsed into a single value for each animal prior to the calculation of mean. The time period 180-240 min was averaged for the basal and the time period 300-360 min was averaged for the clamp conditions.

For experiment [5], the system named is hepatic VLDL secretion. The experiment is described as follows: Lipoprotein (VLDL) secretion studies with tyloxapol; NMR particle size. Format: in vivo, rat. The method, then:
Lipoproteins secretion and particles concentration and size measurements. Tyloxapol (600 mg/kg; ˜1 min) was intravenously injected to inhibit endogenous lipoprotein lipase. This high dose of tyloxapol ensured complete inhibition of triglyceride clearance during VLDL secretion studies. Plasma samples were taken every 30 min for triglycerides analysis and for lipoprotein profiling. Plasma VLDL particles concentration and size were determined by nuclear magnetic resonance spectroscopy (lipoprofile-II test) at Liposcience as previously described (Otvos et al., 1991; 1992). This NMR lipoprofile-II test is based on the assumption that each plasma lipoprotein particle of a particular size gives its own characteristic lipid NMR signal. The intensity of the signal is also in proportion to the concentration of the particle. The diameter range for large, medium and small VLDL is >60 nm, 35-60 nm, and 27-35 nm, respectively.
Selective hepatic branch vagotomy. The surgeries were performed as described (Lam et al., 2005c).
(§2) Treatment with SCD1 ASO. Five and two days before the lipoprotein secretion studies, rats received a single intra-peritoneal injection of either SCD1 or scrambled (SCR) ASO (100 mg/kg of body weight). […] In a separate set of studies, rats received intra-portal injection of either SCD1 or SCR ASO (40 mg/kg of body weight) (Gutierrez-Juarez et al., 2006) three days before the lipoprotein secretion studies.
Portal oleate infusion. Chronic portal catheter was implanted and 7 days were allowed for rat recovery. Oleic acid (45 mM; dissolved in 45% HBP) was infused at a rate of 40 μl/h for 2.5 h (1 h before the 90 min lipoprotein secretion studies). This dose enabled the reconstitution of hepatic oleyl-CoA levels back to normal during portal SCD1 ASO (FIG. 11c) or ICV glucose studies (FIG. 11d).

The test system of experiment [6] is Stearoyl-CoA Desaturase 1 (SCD1). The experiment is described as follows: Liver SCD1 activity, SCD1 mRNA and LCFA-CoA measurements. Format: in vivo, rat. As for the experimental part: as §2
Liver LCFA-CoA measurements. The liver was sampled and the LCFA-CoAs were extracted from the liver and measured by high-performance liquid chromatography (HPLC) as previously described (Lam et al., 2005c).
Stearoyl-CoA Desaturase 1 (SCD1) activity. CD1 activity assays were performed essentially as described (Cohen et al., 2002) using 1-[^14C]-stearoyl-CoA as a substrate. At the end of the reaction incubation long-chain acyl CoAs (LC Acyl-CoAs) were extracted and fractionated by reverse-phase HPLC as previously reported (Lam et al., 2005c). Chromatographically resolved stearoyl CoA (C18:0) and oleyl-CoA (C18:1) peaks were collected and counted in a β-scintillation counter. Protein was assayed by the bicinchoninic acid (BCA) method using a commercially available kit (Pierce Biotechnology, Rockford, Ill.) according to the manufacturer's instructions.
Gene expression. Stearoyl-CoA Desaturasel (SCD1) mRNA was measured by quantitative real-time PCR. Briefly, total RNA was extracted from either liver or fat tissue using the Trizol reagent (Invitrogen, Carlsbad, Calif.) according to the manufacturer instructions. cDNA was then synthesized from 2 μg of total RNA using the Superscript® III First-Strand kit TM? (Invitrogen, Carlsbad, Calif.). Samples of RNA in which the reverse transcriptase was omitted (no RT controls) were also included. The cDNA and no RT controls were diluted 1:20 with PCR grade water and 2 μl from each sample was used for PCR in a total volume of 20 μl. The FastStart DNA Master SYBR Green I kit (Roche Applied Science, Indianapolis, Ind.) and a LightCycler® 2 instrument (Roche Applied Science, Indianapolis, Ind.) were used in all experiments. Either 18S mRNA expression was routinely measured for normalization purposes. The primer sequences used were as follows: 5′-[…]-3′ and 5′-[…]-3′ for Scd1; and 5′-[…]-3′ and 5′-[…]-3′ for ribosomal 18S. The mRNA copy number was calculated from standard curves obtained using cloned target templates (plasmid DNA) of known copy number for each gene of interest.

Experiment [7] deals with conscious rats. The experiment in a line: Circulating lactate infusion with central LDH inhibitor or KATP blocker: glucose kinetics during pancreatic clamps.

“Also recorded” adds a separate entry of the source.

With `NC(=O)C(=O)O` [oxamate, reference compound], in experiment [1] (ICV oxamate (50 mM) with ICV glucose), the “GP (glucose production)” value stood at 11.9 ± 1.0 mg/kg/min. Besides, in experiment [1] (ICV oxamate with ICV lactate), the GP (glucose production) is 11.3 ± 0.6 mg/kg/min and the plasma glucose is 144 ± 1 mg/dL. Besides, in experiment [2], the “hepatic TG-enriched VLDL production” value turned out to be 0.056 ± 0.002 mM/min and the “plasma TG levels” value came to 0.44 ± 0.12 mM.
For `COc1ccc(Cl)cc1C(=O)NCCc1ccc(S(=O)(=O)NC(=O)NC2CCCCC2)cc1` [glibenclamide, reference compound], the “effect of ICV co-infused LDH inhibitor or KATP blocker on the effects of ICV glucose or lactate on plasma glucose and GP” value in experiment [1] was “inhibited”; in experiment [1] (listed as GLI) it was “inhibited”; in experiment [1] (listed as sulfonylurea), “completely abolished the effects of ICV glucose and lactate on plasma glucose and GP”. Besides, the “effect of KATP blocker on the effects of IH glucose” value in experiment [3] is “prevented”. In experiment [4] (ICV co-infusion (oxamate 50 mM, glibenclamide 100 μM)), the “effect of ICV co-infused inhibitor on the plasma triglyceride-lowering effects of ICV glucose or lactate” value is “negated the effects of both ICV glucose and lactate on plasma triglycerides; also recorded: abolishes the plasma triglyceride-lowering effects of glucose; also recorded: abolished the plasma triglyceride-lowering effects of lactate”. Also, in experiment [4] (ICV inhibitor alone), the “plasma triglyceride levels, inhibitor per se” value is given as “did not per se alter the levels of plasma triglycerides”. Further, the “effect of central co-infusion of inhibitor on suppression of VLDL-triglyceride secretion by ICV glucose” value in experiment [5] (central co-infusion with glucose) is “abolished”. In experiment [6] (ICV co-infusion with glucose), the “effect of ICV co-infused inhibitor on the decrease of hepatic SCD1 mRNA and activity by ICV glucose” value was “abolished”. Besides, the “glucose infusion rate to maintain euglycemia” value in experiment [7] (ICV inhibitor infused with IV lactate) was “decreased glucose infusion rate”. For the same molecule, the glucose production result in experiment [7] (central inhibitor infused with circulating lactate infusion) is recorded as “increase in glucose production”.
For the molecule `CCCCCCCC/C=C\CCCCCCCC(=O)O` [oleic acid], in experiment [5] (portal infusion during ICV glucose or SCD1 ASO), the “effect of portal oleic acid infusion on VLDL secretion” value was “negates the effects of both central glucose and SCD1 deficiency on VLDL secretion; also recorded: sufficient to negate the effect of SCD1 deficiency on VLDL secretion”. In addition, the “hepatic oleyl-CoA” value in experiment [6] (portal infusion of oleic acid during ICV glucose or SCD1 deficiency) is on record as “restores hepatic oleyl-CoA to control levels”.
